The compounds below were run on Pyricularia oryzae (assay: microbe, parasite or virus in culture). Details: 168 h, read-out: control.
Format: cell-based
In the case of `O=C(COc1ccc(Br)nc1)c1ccc(-c2noc(C(F)(F)F)n2)cc1` [Compound 49, 2-((6-bromopyridin-3-yl)oxy)-1-(4-(5-(trifluoromethyl)-1,2,4-oxadiazol-3-yl)phenyl)ethan-1-one], the inhibition of growth at 300 ppm is reported as ≥ 70%. In the case of `Cc1ccccc1SCC(=O)c1ccc(-c2noc(C(F)(F)F)n2)cc1` [Compound 66, 2-(o-tolylthio)-1-(4-(5-(trifluoromethyl)-1,2,4-oxadiazol-3-yl)phenyl)ethan-1-one], the inhibition of growth at 300 ppm is reported as ≥ 70%. With `CC(C)(C)SCC(=O)c1ccc(-c2noc(C(F)(F)F)n2)cc1` [Compound 70, 2-(tert-butylthio)-1-(4-(5-(trifluoromethyl)-1,2,4-oxadiazol-3-yl)phenyl)ethan-1-one] the inhibition of growth at 300 ppm was ≥ 70%. With `O=C(CSc1ccc(C(F)(F)F)cc1)c1ccc(-c2noc(C(F)(F)F)n2)cc1` [Compound 71, 1-(4-(5-(trifluoromethyl)-1,2,4-oxadiazol-3-yl)phenyl)-2-((4-(trifluoromethyl)phenyl)thio)ethan-1-one] the inhibition of growth at 300 ppm was ≥ 70%. For `O=C(CSc1nccs1)c1ccc(-c2noc(C(F)(F)F)n2)cc1` [Compound 73, 2-(thiazol-2-ylthio)-1-(4-(5-(trifluoromethyl)-1,2,4-oxadiazol-3-yl)phenyl)ethan-1-one], the inhibition of growth at 300 ppm was ≥ 70%. In the case of `Cc1cnc([S+]([O-])CC(=O)c2ccc(-c3noc(C(F)(F)F)n3)cc2)s1` (stereo not shown) [Compound 83, 2-((5-methylthiazol-2-yl)sulfinyl)-1-(4-(5-(trifluoromethyl)-1,2,4-oxadiazol-3-yl)phenyl)ethan-1-one], the inhibition of growth at 300 ppm is reported as ≥ 70%. With `CC(C)S(=O)(=O)CC(=O)c1ccc(-c2noc(C(F)(F)F)n2)cc1` [Compound 106, 2-(isopropylsulfonyl)-1-(4-(5-(trifluoromethyl)-1,2,4-oxadiazol-3-yl)phenyl)ethan-1-one] the inhibition of growth at 300 ppm was ≥ 70%. In the case of `Cc1cccc(S(=O)(=O)CC(=O)c2ccc(-c3noc(C(F)(F)F)n3)cc2)c1` [Compound 110, 2-(m-tolylsulfonyl)-1-(4-(5-(trifluoromethyl)-1,2,4-oxadiazol-3-yl)phenyl)ethan-1-one], the inhibition of growth at 300 ppm is reported as ≥ 70%. With `O=C(CSCc1ccccc1)c1ccc(-c2noc(C(F)(F)F)n2)cn1` [Compound 118, 2-(benzylthio)-1-(5-(5-(trifluoromethyl)-1,2,4-oxadiazol-3-yl)pyridin-2-yl)ethan-1-one] the inhibition of growth at 300 ppm was ≥ 70%. With `Nc1cc[n+](CC(=O)c2ccc(-c3noc(C(F)(F)F)n3)cc2)cc1` [Compound 148, 4-amino-1-(2-oxo-2-(4-(5-(trifluoromethyl)-1,2,4-oxadiazol-3-yl)phenyl)ethyl)pyridin-1-ium bromide] the inhibition of growth at 300 ppm was ≥ 70%.

Each compound was assayed on Phakopsora pachyrhizi (assay: Phakopsora pachyrhizi Test in Soybean (preventive spray)). Details: preventive spray on Soybean plants, inoculated one day after treatment, disease severity vs untreated control.
Format: in vivo
Experimental: Example 7: Phakopsora pachyrhizi Test in Soybean Compounds were dissolved in 2% dimethyl sulfoxide/acetone and then mixed with water containing an emulsifier to a calibrated spray volume of 50 mL. This 50 mL spray solution was poured into spray bottles for further applications. To test the preventive activity of compounds, healthy young Soybean plants, raised in the greenhouse, were sprayed with the active compound preparation at the stated application rates inside the spray cabinets using hollow cone nozzles. One day after treatment, the plants were inoculated with a spore suspension containing 2×10^5Phakopsora pachyrhizi conidia. The inoculated plants were then kept in a greenhouse chamber at 22-24° C. temperature and 80-90% relative humidity for disease expression. A visual assessment of the compound's performance was carried out by rating the disease severity (0-100% scale) on treated plants 3, 7, 10 and 15 days after application. Efficacy (% control) of the compounds was calculated by comparing the disease rating in the treatment with the one of the untreated control. The sprayed plants were also assessed for plant compatibility by recording symptoms like necrosis, chlorosis and stunting.
For `O=C(COc1ccc(Br)nc1)c1ccc(-c2noc(C(F)(F)F)n2)cc1` [Compound 49, 2-((6-bromopyridin-3-yl)oxy)-1-(4-(5-(trifluoromethyl)-1,2,4-oxadiazol-3-yl)phenyl)ethan-1-one], the pest or weed control at 500 ppm was ≥ 70%. `O=C(CSc1ccc(Cl)cc1)c1ccc(-c2noc(C(F)(F)F)n2)cc1` [Compound 53, 2-((4-chlorophenyl)thio)-1-(4-(5-(trifluoromethyl)-1,2,4-oxadiazol-3-yl)phenyl)ethan-1-one] was tested, and the pest or weed control at 500 ppm was ≥ 70%. For `O=C(CSc1cccc(Cl)c1)c1ccc(-c2noc(C(F)(F)F)n2)cc1` [Compound 54, 2-((3-chlorophenyl)thio)-1-(4-(5-(trifluoromethyl)-1,2,4-oxadiazol-3-yl)phenyl)ethan-1-one], the pest or weed control at 500 ppm was ≥ 70%. For `O=C(CSCc1ccccc1)c1ccc(-c2noc(C(F)(F)F)n2)cc1` [Compound 56, 2-(benzylthio)-1-(4-(5-(trifluoromethyl)-1,2,4-oxadiazol-3-yl)phenyl)ethan-1-one], the pest or weed control at 500 ppm was ≥ 70%. With `COc1ccc(CSCC(=O)c2ccc(-c3noc(C(F)(F)F)n3)cc2)cc1` [Compound 57, 2-((4-methoxybenzyl)thio)-1-(4-(5-(trifluoromethyl)-1,2,4-oxadiazol-3-yl)phenyl)ethan-1-one] the pest or weed control at 500 ppm was ≥ 70%. In the case of `CC(SCC(=O)c1ccc(-c2noc(C(F)(F)F)n2)cc1)c1ccccc1` (stereo not shown) [Compound 58, 2-((1-phenylethyl)thio)-1-(4-(5-(trifluoromethyl)-1,2,4-oxadiazol-3-yl)phenyl)ethan-1-one], the pest or weed control at 500 ppm is reported as ≥ 70%. With `O=C(CSc1ccccc1)c1ccc(-c2noc(C(F)(F)F)n2)cc1` [Compound 60, 2-(phenylthio)-1-(4-(5-(trifluoromethyl)-1,2,4-oxadiazol-3-yl)phenyl)ethan-1-one] the pest or weed control at 500 ppm was ≥ 70%. With `COc1ccccc1SCC(=O)c1ccc(-c2noc(C(F)(F)F)n2)cc1` [Compound 63, 2-((2-methoxyphenyl)thio)-1-(4-(5-(trifluoromethyl)-1,2,4-oxadiazol-3-yl)phenyl)ethan-1-one] the pest or weed control at 500 ppm was ≥ 70%. For `O=C(CSc1cccc(F)c1)c1ccc(-c2noc(C(F)(F)F)n2)cc1` [Compound 64, 2-((3-fluorophenyl)thio)-1-(4-(5-(trifluoromethyl)-1,2,4-oxadiazol-3-yl)phenyl)ethan-1-one], the pest or weed control at 500 ppm was ≥ 70%. With `O=C(CSc1ccccc1F)c1ccc(-c2noc(C(F)(F)F)n2)cc1` [Compound 65, 2-((2-fluorophenyl)thio)-1-(4-(5-(trifluoromethyl)-1,2,4-oxadiazol-3-yl)phenyl)ethan-1-one] the pest or weed control at 500 ppm was ≥ 70%. With `Cc1ccccc1SCC(=O)c1ccc(-c2noc(C(F)(F)F)n2)cc1` [Compound 66, 2-(o-tolylthio)-1-(4-(5-(trifluoromethyl)-1,2,4-oxadiazol-3-yl)phenyl)ethan-1-one] the pest or weed control at 500 ppm was ≥ 70%. `Cc1cccc(SCC(=O)c2ccc(-c3noc(C(F)(F)F)n3)cc2)c1` [Compound 67, 2-(m-tolylthio)-1-(4-(5-(trifluoromethyl)-1,2,4-oxadiazol-3-yl)phenyl)ethan-1-one] was tested, and the pest or weed control at 500 ppm was ≥ 70%. In the case of `O=C(C[S+]([O-])c1ccc(Cl)cc1)c1ccc(-c2noc(C(F)(F)F)n2)cc1` (stereo not shown) [Compound 78, 2-((4-chlorophenyl)sulfinyl)-1-(4-(5-(trifluoromethyl)-1,2,4-oxadiazol-3-yl)phenyl)ethan-1-one], the pest or weed control at 500 ppm is reported as ≥ 70%. `CC(c1ccccc1)[S+]([O-])CC(=O)c1ccc(-c2noc(C(F)(F)F)n2)cc1` (stereo not shown) [Compound 82, 2-((1-phenylethyl)sulfinyl)-1-(4-(5-(trifluoromethyl)-1,2,4-oxadiazol-3-yl)phenyl)ethan-1-one] was tested, and the pest or weed control at 500 ppm was ≥ 70%. `Cc1cnc([S+]([O-])CC(=O)c2ccc(-c3noc(C(F)(F)F)n3)cc2)s1` (stereo not shown) [Compound 83, 2-((5-methylthiazol-2-yl)sulfinyl)-1-(4-(5-(trifluoromethyl)-1,2,4-oxadiazol-3-yl)phenyl)ethan-1-one] was tested, and the pest or weed control at 500 ppm was ≥ 70%. In the case of `O=C(C[S+]([O-])c1ccccc1)c1ccc(-c2noc(C(F)(F)F)n2)cc1` (stereo not shown) [Compound 84, 2-(phenylsulfinyl)-1-(4-(5-(trifluoromethyl)-1,2,4-oxadiazol-3-yl)phenyl)ethan-1-one], the pest or weed control at 500 ppm is reported as ≥ 70%. With `O=C(C[S+]([O-])c1cccc(C(F)(F)F)c1)c1ccc(-c2noc(C(F)(F)F)n2)cc1` (stereo not shown) [Compound 85, 1-(4-(5-(trifluoromethyl)-1,2,4-oxadiazol-3-yl)phenyl)-2-((3-(trifluoromethyl)phenyl)sulfinyl)ethan-1-one] the pest or weed control at 500 ppm was ≥ 70%. With `Cc1ccc([S+]([O-])CC(=O)c2ccc(-c3noc(C(F)(F)F)n3)cc2)cc1` (stereo not shown) [Compound 86, 2-(p-tolylsulfinyl)-1-(4-(5-(trifluoromethyl)-1,2,4-oxadiazol-3-yl)phenyl)ethan-1-one] the pest or weed control at 500 ppm was ≥ 70%. With `O=C(C[S+]([O-])c1cccc(F)c1)c1ccc(-c2noc(C(F)(F)F)n2)cc1` (stereo not shown) [Compound 87, 2-((3-fluorophenyl)sulfinyl)-1-(4-(5-(trifluoromethyl)-1,2,4-oxadiazol-3-yl)phenyl)ethan-1-one] the pest or weed control at 500 ppm was ≥ 70%. `O=C(C[S+]([O-])c1ccccc1F)c1ccc(-c2noc(C(F)(F)F)n2)cc1` (stereo not shown) [Compound 88, 2-((2-fluorophenyl)sulfinyl)-1-(4-(5-(trifluoromethyl)-1,2,4-oxadiazol-3-yl)phenyl)ethan-1-one] was tested, and the pest or weed control at 500 ppm was ≥ 70%. With `O=C(CS(=O)(=O)c1ccc(Cl)c(Cl)c1)c1ccc(-c2noc(C(F)(F)F)n2)cc1` [Compound 94, 2-((3,4-dichlorophenyl)sulfonyl)-1-(4-(5-(trifluoromethyl)-1,2,4-oxadiazol-3-yl)phenyl)ethan-1-one] the pest or weed control at 500 ppm was ≥ 70%. For `O=C(CS(=O)(=O)c1ccc(Cl)cc1)c1ccc(-c2noc(C(F)(F)F)n2)cc1` [Compound 95, 2-((4-chlorophenyl)sulfonyl)-1-(4-(5-(trifluoromethyl)-1,2,4-oxadiazol-3-yl)phenyl)ethan-1-one], the pest or weed control at 500 ppm was ≥ 70%. `O=C(CS(=O)(=O)c1ccc(F)c(F)c1)c1ccc(-c2noc(C(F)(F)F)n2)cc1` [Compound 96, 2-((3,4-difluorophenyl)sulfonyl)-1-(4-(5-(trifluoromethyl)-1,2,4-oxadiazol-3-yl)phenyl)ethan-1-one] was tested, and the pest or weed control at 500 ppm was ≥ 70%. In the case of `COc1ccc(CS(=O)(=O)CC(=O)c2ccc(-c3noc(C(F)(F)F)n3)cc2)cc1` [Compound 98, 2-((4-methoxybenzyl)sulfonyl)-1-(4-(5-(trifluoromethyl)-1,2,4-oxadiazol-3-yl)phenyl)ethan-1-one], the pest or weed control at 500 ppm is reported as ≥ 70%. For `O=C(CS(=O)(=O)C1CCCCC1)c1ccc(-c2noc(C(F)(F)F)n2)cc1` [Compound 100, 2-(cyclohexylsulfonyl)-1-(4-(5-(trifluoromethyl)-1,2,4-oxadiazol-3-yl)phenyl)ethan-1-one], the pest or weed control at 500 ppm was ≥ 70%. `O=C(CS(=O)(=O)c1cccc(C(F)(F)F)c1)c1ccc(-c2noc(C(F)(F)F)n2)cc1` [Compound 103, 1-(4-(5-(trifluoromethyl)-1,2,4-oxadiazol-3-yl)phenyl)-2-((3-(trifluoromethyl)phenyl)sulfonyl)ethan-1-one] was tested, and the pest or weed control at 500 ppm was ≥ 70%. In the case of `O=C(CN1CCOCC1)c1ccc(-c2noc(C(F)(F)F)n2)cc1` [Compound 136, 2-morpholino-1-(4-(5-(trifluoromethyl)-1,2,4-oxadiazol-3-yl)phenyl)ethan-1-one], the pest or weed control at 500 ppm is reported as ≥ 70%.
